From patent US20250144067A1, “PERSONALIZED STARVATION THERAPY FOR CANCER” (Faeth Therapeutics, Inc., priority 2021, published 2025)
Structures can show the parent of a compound that is named as a salt.

Experiments:
[1] = system: NCI-H292 lung cancer cells; test: FDA drug screening, complete media vs cholesterol-free media without statin (TABLE 1); format: cell-based, human
[2] = system: NCI-H292 lung cancer cells; test: FDA drug screening, complete media vs cholesterol-free media with simvastatin (TABLE 2); format: cell-based, human; settings: for Cholesterol-free media + simvastatin (0.04 μM) / Complete Media: NCI-H292 cells
[3] = NCI-H292 cells, cholesterol-free media without statin, FDA drug library screen
[4] = NCI-H292 cells, complete media, FDA drug library screen
[5] = complete vs cholesterol-free media; >0 enhanced anti-cancer activity, about 0 neutral, <0 antagonist
[6] = drug in cholesterol-free media with simvastatin 0.04 μM
[7] = complete media vs cholesterol-free media + simvastatin (0.04 μM), >0 enhanced anti-cancer activity, about 0 neutral, <0 antagonist
[8] = Complete minus Cholesterol-free; greater than 0 enhanced anti-cancer activity, about 0 neutral, below 0 antagonist
[9] = NCI-H292 cells, FDA drug library screen, cholesterol-free media without statin
[10] = NCI-H292 cells, FDA drug library screen, complete media
[11] = FDA library drug in cholesterol-free media with simvastatin 0.04 μM
[12] = FDA library drug in complete media
[13] = FDA drug library screen, cholesterol-free media with simvastatin 0.04 μM
[14] = FDA drug library screen, complete media
[15] = Complete minus Cholesterol-free; […]
[16] = complete media vs cholesterol-free media + simvastatin (0.04 μM), […]
[17] = Complete minus Cholesterol-free; >0 enhanced anti-cancer activity, about 0 neutral, <0 antagonist
[18] = NCI-H292 cells, cholesterol-free media without statin
[19] = complete media minus cholesterol-free media + simvastatin, >0 enhanced anti-cancer activity, about 0 neutral, <0 antagonist

Compound | Cholesterol-free [1, 3] | Complete [1, 4] | Difference [1, 5] | Cholesterol-free media + simvastatin (0.04 μM) [2, 6] | Complete Media ([2]; drug in complete media) | Difference [2, 7] | Cholesterol-free media + simvastatin (0.04 μM) [2, 13] | Complete Media [2, 14] | further results
CCc1cc2c(cc1N1CCC(N3CCOCC3)CC1)C(C)(C)c1[nH]c3cc(C#N)ccc3c1C2=O [Alectinib (Hydrochloride)] | 0.7945 | 1.394 | 0.60 | 0.8676 | 0.6682 | −0.20 | – | – | –
O=C(CCCCCCC(=O)Nc1ccccc1)NO [Vorinostat] | – | – | – | 0.872 | 0.635 | −0.24 | – | – | Difference [1, 8]: −0.17; Cholesterol-free [1, 9]: 0.4861; Complete [1, 10]: 0.3154
COc1ccc(CN2CCN(C(c3ccc(F)cc3)c3ccc(F)cc3)CC2)c(OC)c1OC [Lomerizine dihydrochloride] | – | – | – | – | – | −0.31 | – | – | Difference [1, 8]: −0.12; Cholesterol-free [1, 9]: 1.023; Complete [1, 10]: 0.8999; Cholesterol-free media + simvastatin (0.04 μM) [2, 11]: 1.178; Complete Media [2, 12]: 0.8678
NC(=O)[C@@H]1CC[C@@H]2CN1C(=O)N2OS(=O)(=O)O [Avibactam (sodium hydrate)] | 0.6447 | 0.883 | 0.24 | – | – | −0.09 | 1.124 | 1.029 | –
CC[C@H]1[C@@H](O)[C@@H]2[C@H](CC[C@]3(C)[C@@H]([C@H](C)CCC(=O)O)CC[C@@H]23)[C@@]2(C)CC[C@@H](O)C[C@@H]12 [Obeticholic acid] | 0.5907 | 0.9124 | 0.32 | – | – | −0.13 | 1.258 | 1.13 | –
CNC(=O)c1ccccc1Sc1ccc2c(/C=C/c3ccccn3)n[nH]c2c1 [Axitinib] | 0.7104 | 1.034 | 0.32 | 0.9239 | 0.7152 | −0.21 | – | – | –
CC[C@@]1(O)C(=O)OCc2c1cc1n(c2=O)Cc2cc3cc(O)ccc3nc2-1 [(S)-10-Hydroxycamptothecin] | 0.01962 | 0.02742 | – | – | – | – | 0.2337 | 0.138 | Difference [1, 15]: 0.01; Difference [2, 16]: −0.10
CC(c1cc2ccccc2s1)N(O)C(N)=O (centres unmarked) [Zileuton] | – | – | – | 1.302 | 1.066 | −0.24 | – | – | Difference [1, 17]: −0.21; Cholesterol-free [1, 18]: 1.451; Complete ([1]; NCI-H292 cells, complete media): 1.238
COc1cc(Nc2ncc(F)c(Nc3ccc4c(n3)N(COP(=O)(O)O)C(=O)C(C)(C)O4)n2)cc(OC)c1OC [Fostamatinib] | – | – | – | – | – | −0.36 | – | – | Difference [1, 17]: −0.29; Cholesterol-free [1, 18]: 0.7013; Complete ([1]; NCI-H292 cells, complete media): 0.4125; Cholesterol-free media + simvastatin (0.04 μM) [2, 11]: 1.406; Complete Media [2, 12]: 1.042
CC(C)(CO)[C@@H](O)C(=O)NCCC(=O)[O-].CC(C)(CO)[C@@H](O)C(=O)NCCC(=O)[O-].[Ca+2] [D-Pantothenic acid (hemicalcium salt)] | 0.8788 | 0.8434 | – | – | – | −0.37 | – | – | Difference [1, 17]: −0.04; Cholesterol-free media + simvastatin (0.04 μM) [2, 11]: 1.159; Complete Media [2, 12]: 0.786
Alverine (citrate) | – | – | – | – | – | – | 0.4761 | 1.128 | Difference ([1]; Complete minus Cholesterol-free; greater than 0 enhanced anti-cancer activity, about 0 neutral, below 0 antagonists): −0.59; Cholesterol-free ([1]; NCI-H292 cells in cholesterol-free media without statin): 1.703; Difference [2, 19]: 0.65
Sultamicillin (tosylate) | – | – | – | – | – | – | – | – | Cholesterol-free [1, 18]: 1.337; Complete ([1]; NCI-H292 cells, complete media): 1.021; Difference ([1]; complete vs cholesterol-free media; greater than 0 enhanced anti-cancer activity, about 0 neutral, below 0 antagonists): −0.32; Cholesterol-free media + simvastatin (0.04 μM) ([2]; cholesterol-free media with simvastatin 0.04 μM, cell growth value in FDA drug screen): 1.072; Complete Media ([2]; complete media, cell growth value in FDA drug screen): 1.191; Difference [2, 19]: 0.12
Vinblastine (sulfate) | 0.05138 | 0.09114 | – | – | – | – | 0.2181 | 0.1119 | Difference [1, 15]: 0.04; Difference [2, 16]: −0.11
